Laboratory results taken from patent publication US20220168384A1, “Anti-Bacterial Combination Therapy” (McMaster University, priority 2019, published 2022).

Tests used:
P. aeruginosa PA14 [1] = experiment: Dose response and checkerboard assays against PA14; type: cell-based, Pseudomonas aeruginosa; settings: PA14; for interaction with DSX: 2D checkerboard; for effect of 100 μM Fe^3+ on inhibitory activity: VAN + compound checkerboards; for synergy with TS: checkerboard, IC50 isobolograms, 10:90; for relative potency of synergy with TS: checkerboards, isobolograms and CI values
Protocol: (§1) Checkerboard assays were set-up using Nunc 96-well plates in an 8-well by 8-well format. Two columns were allocated for vehicle controls and two columns for sterility controls. Vehicle controls contained 2 μL DMSO plus 2 μL DFP solvent for checkerboards with TS and DFP or 4 μL DMSO for TS and DSX, in 146 μL of 10:90 medium or 10% serum inoculated with PA14 or PAO1-KP as described in Growth Curves. Sterile controls contained the same components in 10:90 medium or 10% serum, without cells. Serial dilutions of TS—with 17 μg/mL being the highest final concentration—were added along the y axis of the checkerboard (increasing concentration from bottom to top) whereas serial dilutions of DFP or DSX—with 512 μg/mL being the highest final concentration—were added along the x axis (increasing concentration from left to right). The final volume of each well was 150 μL and each checkerboard was repeated at least three times. Plates were incubated and the final OD600 determined as detailed above.
Culture conditions, growth assays, dose response and checkerboard assays using P. aeruginosa PA14 were performed as described in Example 1. Briefly, overnight cultures were grown in LB for 16 h, 37° C., 200 rpm then subcultured (1:500 dilution) into 10:90 for 6 h. Subcultures were standardized to OD600 of 0.10 and diluted 1:500 in fresh 10:90 before use. For the dose response assay, serial dilutions of compounds were added at 75 times the final concentration and diluted with 10:90 with cells to reach the desired final concentration. This was done in triplicate for technical replicates. Vehicle and sterile controls were included. The checkerboard assay was done similarly to the dose response assay but in an 8×8 format in a 96-well Nunc plate, with concentration of one drug increasing along the y-axis and the other along the x-axis. Sterility and vehicle controls were included with two columns allocated for each control. At least three biological replicates were repeated for the dose response and checkerboard assays.

P. aeruginosa PA14 [2] = experiment: Checkerboards pinned to LB agar (bactericidal activity); type: cell-based, Pseudomonas aeruginosa; settings: overnight 37° C.
Protocol: Checkerboards were pinned to LB agar plates using a sterile 96 pin tool. Plates were incubated overnight at 37° C. Independent experiments were conducted 3 times and a representative plate is shown.

[3] = aqueous media
[4] = tested on: P. aeruginosa clinical isolates; experiment: Clinical isolates testing, P. aeruginosa; type: cell-based, Pseudomonas aeruginosa
Protocol: (§2) Clinical isolates of P. aeruginosa and A. baumannii were inoculated from −80° C. stocks into 200 μL LB broth and grown with shaking at 200 rpm, 16 h, 37° C. in Nunc 96-well plates. The overnight cultures were subcultured (1:25 dilution) into 10:90 and grown with shaking at 200 rpm, 2 h, 37° C. Vehicle controls consisted of 4 μL of DMSO, 144 μL 10:90 and 2 μL of subculture. Sterile controls consisted of 4 μL of DMSO and 146 μL 10:90. […]. The final volume of each well was 150 μL and each checkerboard was repeated at least three times. Plates were incubated with shaking at 200 rpm, 16 h, 37° C. and OD600 was measured (Multiskan Go—Thermo Fisher Scientific). The results were plotted as percent of control (wells containing only DMSO) using Prism (GraphPad).
(§3) Clinical isolates were grown and tested as described in Example 1. Briefly, clinical isolates were inoculated from glycerol stocks stored at −80° C. into Nunc 96-well plates and grown overnight at 37° C., for 16 h with shaking in LB (200 rpm). Overnights were subcultured (1:25) into fresh 10:90 medium and grown for 2 h under the same growth conditions. Subcultures were diluted 1:75 in fresh 10:90. Compounds were diluted 1:75 to obtain the final concentration. DOXY and CLI were added at a final concentration of 1 μg/mL, CO was used at 2 μg/mL, TRO was used at 4 μg/mL, TS was used at 8.3 μg/mL, and DSX was used at 32 μg/mL. Vehicle and sterility controls were included. Plates were incubated overnight with the same conditions. The OD600 was read (Multiscan Go—Thermo Fisher Scientific), analyzed using Excel, and the data plotted using Prism (GraphPad).
(§4) Culture conditions, checkerboard assays using P. aeruginosa PA14 and dose-response assays were performed as described in Example 1. In addition to TS, other thiopeptides tested were siomycin A (SM), thiocillin I (TC), micrococcin P1 (MC), nosiheptide (NH), berninamycin A (BER), and geninthiocin A (GEN). For dose response assays of the combinations conducted in 10:90, DSX concentration was constant at 64 μg/mL.

[5] = tested on: Acinetobacter baumannii clinical isolates; experiment: Clinical isolates testing, A. baumannii; type: cell-based; settings: 10:90
Protocol: as §2, §3, §4

[6] = Chrome azurol S (CAS) plate assay; type: physicochemical; settings: 10 μL of 2 mg/mL; room temperature 1 h
[7] = Qualitative assay for antibiotic-Fe3+ coloured complexes; type: physicochemical; settings: stock antibiotic + FeCl3 final 10 μM; room temperature 1 h
Protocol: […]. Binding of iron by a compound causes spectral shifts that can detected visually. Five μL of stock concentration antibiotic was added to 5 μL of FeCl3 to a final FeCl3 concentration of 10 μM and incubated at room temperature for one hour. Negative controls without iron are indicated by a negative sign and droplets with FeCl3 are indicated with a positive sign; vehicle controls with Milli-Q H2O and DMSO were included.
Compounds were arrayed in Nunc 96 microwell plates. Vehicle controls contained Milli-Q H2O with 1:75 dilution of each compound at a final concentration of […]. The experimental set-up contained the same components as the vehicle control, with the addition of […] FeCl3. The final volume in each well was 150 μL. The plate was incubated at room temperature for one hour and absorption spectra from 300 nm to 700 nm was read in 2 nm increments (Multiskan Go—Thermo Fisher Scientific). […]

[8] = UV-Vis absorption spectra assay for iron chelation; type: physicochemical; settings: 300 μM compound and FeCl3; 300-700 nm; 1 h
Protocol: Equimolar concentrations of compound and FeCl3 were added in deionized H2O to a final concentration of 300 μM and a spectrum of wavelengths from 300 nm to 700 nm read after 1 h incubation at room temperature. The black dashed line is the spectrum of the compound in the absence of iron. The black solid line is the spectrum after the addition of iron. […] Chloramphenicol and ampicillin were used as negative controls. Each assay was performed at least 3 times and averaged values are shown.
Compounds were arrayed in Nunc 96 microwell plates. Vehicle controls contained Milli-Q H2O with 1:75 dilution of each compound at a final concentration of […]. The experimental set-up contained the same components as the vehicle control, with the addition of […] FeCl3. The final volume in each well was 150 μL. The plate was incubated at room temperature for one hour and absorption spectra from 300 nm to 700 nm was read in 2 nm increments (Multiskan Go—Thermo Fisher Scientific).

P. aeruginosa PAO1 = experiment: Checkerboard assays of TS with DFP, DSX or 10% serum; type: cell-based, Pseudomonas aeruginosa; settings: 10:90
Protocol: Human serum (Corning) and mouse serum (Equitech-Bio) were stored at −20° C. Sera were aliquoted into 5-ml culture tubes by thawing once at 37° C. for 30 min with occasional gentle mixing. Culture tubes were frozen at −20° C. until use. To make 10% serum solutions, serum was thawed for 10 min at 37° C. and then heat inactivated at 57° C. for 30 min. Two milliliters of heat-inactivated serum were added to 18 ml of 10:90 medium and gently mixed. This 10% serum solution was used for checkerboard assays.
as §1

[9] = Pseudomonas aeruginosa, concentration used in clinical isolate testing, read-out: ⅛^th the MIC of PA14

one-eighth of MIC against PA14 (test concentration) (P. aeruginosa PA14 [1]; [9]) [µg/mL]	concentrations at which the compound precipitated [3]	colour change upon addition of FeCl3 [7]	Compound	interaction with DSX (P. aeruginosa PA14 [1])	effect of 100 μM Fe^3+ on inhibitory activity (P. aeruginosa PA14 [1])	synergy with TS (P. aeruginosa PA14 [1])	relative potency of synergy with TS (P. aeruginosa PA14 [1])	mode of activity of compound alone (P. aeruginosa PA14 [2])	growth of C0379 with CLI at 8 μg/mL ([4]; TS 8.3 and DSX 32 μg/mL where combined)	susceptibility of A. baumannii strain C0286 [5]	decolourization of CAS agar (relative affinity for iron) [6]	absorption spectrum after addition of FeCl3 [8]	effect of chelator on TS activity (P. aeruginosa PAO1; checkerboard with TS)	activity of chelator on its own against P. aeruginosa (P. aeruginosa PAO1; checkerboard, up to 512 μg/ml)	MIC (P. aeruginosa PA14 [1]; [9]) [µg/mL]	susceptibility of C0379 compared to PA14 [4]
1	above 8 μg/mL		Oc1c(I)cc(Cl)c2cccnc12 [CLI, Clioquinol]	antagonism	abrogated	synergized	most potent synergy	bacteriostatic	did not reduce growth below MIC	susceptible	Decolourization was not observed					
		dark red/violet	Cc1c(O)c(=O)ccn1C [DFP, deferiprone]									shifted	potentiated TS activity	neither chelator had activity		
			O=c1cccccc1O [TRO, Tropolone]	indifferent	abrogated	synergized	greater synergy	bacteriostatic			greatest decolourization	showed shifts in their absorption spectra			4	less susceptible
